# Measurements reported in patent US8084064B2, “Antiwrinkle agent and skin cosmetic composition” (Kao Corporation, priority 2004, dated 2011).
# “Also recorded” adds a separate entry of the source.
# Test system: Hartley guinea pigs (females)
# Assay: Safety (sensitization) maximization test
# Format: in vivo, guinea pig
# Conditions: for MR: Mean score (average of reaction scores): erythema score 0-3
# Method: Safety (sensitization) was evaluated using a maximization test.
# An area of the skin over the scapula measuring 4×6 cm^2 was shaved in Hartley guinea pigs (females) having body weights of 350 to 400 g, and two rows of three intradermal injections per row were made in the order indicated below.
# 1) 0.05 mL aliquots of Freund's complete adjuvant (hereinafter, to abbreviated as FCA solution) were intradermally injected at two locations on the left and right sides.
# 2) 0.05 mL aliquots of an olive oil solution containing 10% of a sclareol derivative obtained in the aforementioned producing examples or sclareol were intradermally injected at two locations on the left and right sides.
# 3) 0.05 mL aliquots of an emulsified solution obtained by adding an equal volume of sterile water to an FCA solution containing 20% sclareol or sclareol derivative obtained in the aforementioned production examples were intradermally injected at two locations on the left and right sides.
# The same sites on the animals were shaved one week after these procedures, and vaseline containing 10% sodium lauryl sulfate was rubbed onto the skin to induce mild inflammation. 24 hours after rubbing, 0.2 mL of olive oil solutions containing 10% sclareol derivative sample of the present invention or sclareol were applied to a piece of gauze, which was then affixed to cover the skin for 48 hours. The abdomens of the animals were shaved on the 21st day after intradermal injection, and olive oil solutions containing 5% and 10% of a sclareol derivative sample of the present invention, or an olive oil solution containing 5% of a sclareol sample were affixed to cover the skin for 24 hours.
# [1] = challenge concentration 5% in olive oil, After 24 Hours
# [2] = challenge concentration 5% in olive oil, After 48 Hours
# [3] = challenge concentration 10% in olive oil, After 24 Hours
# [4] = challenge concentration 10% in olive oil, After 48 Hours
Compound,PR: Sensitization rate (Number of positive animals/Number of animals used) [1],MR: Mean score (average of reaction scores) [1],PR: Sensitization rate (Number of positive animals/Number of animals used) [2],MR: Mean score (average of reaction scores) [2],PR: Sensitization rate (Number of positive animals/Number of animals used) [3],MR: Mean score (average of reaction scores) [3],PR: Sensitization rate (Number of positive animals/Number of animals used) [4],MR: Mean score (average of reaction scores) [4],"Sensitization (result in words) (maximization test, guinea pigs)"
monoacetylated sclareol,"0, (0)","0, (0)","0, (0)","0, (0)","0, (0)","0, (0)","0, (0)","0, (0)",–
"C=C[C@@](C)(O)CCC1[C@@]2(C)CCCC(C)(C)C2CC[C@@]1(C)O (some centres unmarked) [Sclareol, sclareol, reference compound]",4/10,0.4,4/10,0.4,–,–,–,–,has skin sensitizing properties; also recorded: sensitization being confirmed
"CC[C@](C)(O)CCC1[C@@]2(C)CCCC(C)(C)C2CC[C@@]1(C)O (some centres unmarked) [Hydrogenated sclareol, hydrogenated sclareol]","0, (0)","0, (0)","0, (0)","0, (0)","0, (0)","0, (0)","0, (0)","0, (0)",–
"C=C[C@@](C)(CC[C@@H]1[C@@]2(C)CCCC(C)(C)[C@@H]2CC[C@@]1(C)OC(C)=O)OC(C)=O [Diacetylated sclareol, diacetylated sclareol]","0, (0)","0, (0)","0, (0)","0, (0)","0, (0)","0, (0)","0, (0)","0, (0)",–
